Test results from patent US11713335B2, “Aminocoumarin compounds and methods of their use” (President and Fellows of Harvard College, priority 2018, dated 2023).
Converted amounts (≈) assume the structure as drawn. Where two headings read alike, the source gives them in different places.

Legend:
Type in all cases: cell-based
E. coli 25922 = experiment: Minimal inhibitory concentration, E. coli 25922; conditions: 16 hour minimal inhibitory concentration at 37° C., read-out: MIC (μM) E. coli 25922
Description: (§1) General Procedure for Determination of Minimal Inhibitory Concentrations
(§2) Overnight cultures (5 mL) of bacterial strains were grown in LB media or TSA media (for S. aureus) at 37° C. and with shaking at 220 rpm until saturation. The overnight culture was diluted serially 1:100 (50 μL in 5 mL sterile media) and then 1:100 (250 μL in 25 mL sterile media). The 25 mL of diluted culture was then dispensed to a sterile 96 well plate (Corning #3370). 198 μL of culture were dispensed into row A and 100 μL of this culture were dispensed into rows B-H. Aminocoumarin compound (DMSO stock) were added to the first row and then the row was mixed by pipetting. 100 μL of culture from row A were transferred to row B and the serial dilution continued until the final 100 μL from row H were discarded. The plate was incubated without shaking in a 37° C. for 16 hours and then read by visible light spectrophotometer (Molecular Devices) at 600 nm. The minimal inhibitory concentration (MIC) was determined as the lowest concentration of compound concentration that inhibited the growth of bacteria.
(§3) The compounds of the invention were assessed for activities against the pathogens S. aureus RN4220 and MW2, E. cloacae 13047, A. baumannii 19606, K. pneumoniae 700721, E. coli MC4100, 25922. All activities are reported in micromolar (uM) and are 16 hour minimal inhibitory concentrations at 37° C. The assay is detailed in Example 11 and is titled “General Procedure for Determination of Minimal Inhibitory Concentrations.”

S. aureus MW2 = experiment: Minimal inhibitory concentration, S. aureus MW2; conditions: read-out: MIC (μM) S. aureus MW2 (MRSA)
Description: as §1, §2, §3

A. baumannii 19606 = experiment: Minimal inhibitory concentration, A. baumannii 19606; conditions: 16 hour minimal inhibitory concentration at 37° C., read-out: MIC (μM) A. baumannii 19606
Description: as §1, §2, §3

E. coli MC4100 = experiment: Minimal inhibitory concentration, E. coli MC4100; conditions: 16 hour minimal inhibitory concentration at 37° C., read-out: MIC (μM) E. coli MC4100 ara+
Description: as §1, §2, §3

S. aureus RN4220 = experiment: Minimal inhibitory concentration, S. aureus RN4220; conditions: 16 hour minimal inhibitory concentration at 37° C., read-out: MIC (μM) S. aureus RN4220
Description: as §1, §2, §3

K. pneumoniae 700721 = experiment: Minimal inhibitory concentration, K. pneumoniae 700721; conditions: 16 hour minimal inhibitory concentration at 37° C., read-out: MIC (μM) K. pneumoniae 700721
Description: as §1, §2, §3

E. cloacae 13047 = experiment: Minimal inhibitory concentration, E. cloacae 13047; conditions: 16 hour minimal inhibitory concentration at 37° C., read-out: MIC (μM) E. cloacae 13047
Description: as §1, §2, §3

[1] = Staphylococcus aureus, RN4220, 16 h
[2] = Staphylococcus aureus, MRSA, 16 h, 16 hour minimal inhibitory concentration at 37° C.
[3] = Acinetobacter baumannii, 19606, 16 h
[4] = 16 hour minimal inhibitory concentration at 37° C.

SMILES	MIC (E. coli 25922; Escherichia coli, 25922) [µM]	MIC (S. aureus MW2; Staphylococcus aureus, MRSA, 16 h) [µM]	MIC (A. baumannii 19606; Acinetobacter baumannii, 19606) [µM]	MIC (E. coli MC4100; Escherichia coli, MC4100) [µM]	MIC (S. aureus RN4220; [1]) [µM]	MIC (K. pneumoniae 700721; Klebsiella pneumoniae, 700721) [µM]	MIC (E. cloacae 13047; Enterobacter cloacae, 13047) [µM]	MIC (E. coli 25922; Escherichia coli, 25922, 16 h) [µM]	MIC (S. aureus MW2; [2]) [µM]	MIC (A. baumannii 19606; [3]) [µM]	MIC (E. coli MC4100; Escherichia coli, MC4100, 16 h) [µM]	MIC (E. coli 25922) [µM]	MIC (S. aureus MW2; [4]) [µM]	MIC (A. baumannii 19606) [µM]	MIC (E. coli MC4100) [µM]	MIC (S. aureus RN4220) [µM]	MIC (K. pneumoniae 700721) [µM]	MIC (E. cloacae 13047) [µM]
CO[C@@H]1[C@@H](OC(N)=O)[C@@H](O)[C@H](Oc2ccc3c(O)c(NC(=O)c4ccc(F)c(CC=C(C)C)c4)c(=O)oc3c2C)OC1(C)C [Compound 101]	20 (≈ 12.3 µg/mL)	1 (≈ 0.615 µg/mL)	41 (≈ 25.2 µg/mL)	20 (≈ 12.3 µg/mL)	2 (≈ 1.23 µg/mL)	81 (≈ 49.8 µg/mL)	> 100											
CO[C@@H]1[C@@H](OC(N)=O)[C@@H](O)[C@H](Oc2ccc3c(OCCCO)c(NC(=O)c4ccc(O)c(CC=C(C)C)c4)c(=O)oc3c2C)OC1(C)C [Compound 216]					19 (≈ 12.7 µg/mL)	> 100	> 100	> 200	19 (≈ 12.7 µg/mL)	> 50	> 200							
CO[C@@H]1[C@@H](OC(N)=O)[C@@H](O)[C@H](Oc2ccc3c(O)c(NC(=O)c4cccc(Oc5cccc(Cl)c5)c4)c(=O)oc3c2C)OC1(C)C [Compound 245]					10 (≈ 6.55 µg/mL)	> 100	> 100	76 (≈ 49.8 µg/mL)	19 (≈ 12.4 µg/mL)	> 50	38 (≈ 24.9 µg/mL)							
CO[C@@H]1[C@@H](O)[C@@H](OC(=O)c2cccn2C)[C@H](Oc2ccc3c(O)c(NC(=O)c4ccc(O)c(CC=C(C)C)c4)c(=O)oc3c2C)OC1(C)C [Compound 114]												>200	74 (≈ 50.1 µg/mL)	>50	>200	74 (≈ 50.1 µg/mL)	>100	>100
CO[C@@H]1[C@@H](OC(N)=O)[C@@H](O)[C@H](Oc2ccc3c(O)c(NC(=O)c4cc(C)oc4C)c(=O)oc3c2C)OC1(C)C [Compound 200]					91 (≈ 49.7 µg/mL)	> 100	> 100	> 200	91 (≈ 49.7 µg/mL)	> 50	> 200							
C=CCOc1c(NC(=O)c2ccc(O)c(CC=C(C)C)c2)c(=O)oc2c(C)c(O[C@@H]3OC(C)(C)[C@H](OC)[C@@H](OC(N)=O)[C@H]3O)ccc12 [Compound 212]					> 100	> 100	> 100	> 200	> 100	> 50	> 200							
CO[C@@H]1[C@@H](OC(N)=O)[C@@H](O)[C@H](Oc2ccc3c(O)c(NC(=O)c4ccc(Br)c(Oc5ccccc5)c4)c(=O)oc3c2C)OC1(C)C [Compound 258]					5 (≈ 3.5 µg/mL)	20 (≈ 14 µg/mL)	> 100	18 (≈ 12.6 µg/mL)	4.5 (≈ 3.15 µg/mL)	> 50	4.5 (≈ 3.15 µg/mL)							
C#Cc1ccc(C(=O)Nc2c(O)c3ccc(O[C@@H]4OC(C)(C)[C@H](OC)[C@@H](OC(N)=O)[C@H]4O)c(C)c3oc2=O)cc1Oc1ccccc1 [Compound 257]					5 (≈ 3.22 µg/mL)	71 (≈ 45.8 µg/mL)	> 100	19 (≈ 12.2 µg/mL)	5 (≈ 3.22 µg/mL)	> 50	39 (≈ 25.1 µg/mL)							
CO[C@@H]1[C@@H](OC(N)=O)[C@@H](O)[C@H](Oc2ccc3c(O)c(NC(=O)c4cccc(Oc5ccccc5Cl)c4)c(=O)oc3c2C)OC1(C)C [Compound 246]					10 (≈ 6.55 µg/mL)	> 100	> 100	76 (≈ 49.8 µg/mL)	5 (≈ 3.28 µg/mL)	> 50	79 (≈ 51.7 µg/mL)							
CO[C@@H]1[C@@H](OC(N)=O)[C@@H](O)[C@H](Oc2ccc3c(O)c(NC(=O)c4cccc(Oc5ccc(C)cc5)c4)c(=O)oc3c2C)OC1(C)C [Compound 221]					10 (≈ 6.35 µg/mL)	> 100	> 100	5 (≈ 3.17 µg/mL)	10 (≈ 6.35 µg/mL)	> 50	10 (≈ 6.35 µg/mL)							
COc1cccc(-c2cccc(C(=O)Nc3c(O)c4ccc(O[C@@H]5OC(C)(C)[C@H](OC)[C@@H](OC(N)=O)[C@H]5O)c(C)c4oc3=O)c2)c1 [Compound 103]												>200	36 (≈ 22.8 µg/mL)	9 (≈ 5.71 µg/mL)	>200	36 (≈ 22.8 µg/mL)	>100	>100
